In US12118414B2, “BCL-2 proteins degraders for cancer treatment” (BioVentures, LLC, priority 2018, dated 2024):
pIC50, pKi: −log10 of the molar value.

What was measured:
Bcl-xL [1] = biological target: T1, Bcl-xL (Homo sapiens, UniProt Q07817); experiment: Western blot Bcl-xL degradation assay in human platelets; assay type: cell-based; design: endogenous in cells; host or cells: MOLT4; conditions: 16 h
Procedure: (§1) MOLT4 cells and human platelets were incubated with increasing concentrations of compound #55 for 16 h. The cells were harvested and lysed in RIPA lysis buffer supplemented with protease and phosphatase inhibitor cocktails. An equal amount of protein (20 μg/lane) was resolved on a pre-cast 4-20% SDS-PAGE gel. Proteins were subsequently transferred to NOVEX PVDF membranes by electrophoresis. The membranes were blocked in blocking buffer (5% non-fat dry milk in TBS-T), and incubated with primary antibodies (at optimized concentrations) overnight at 4° C. After three washings in TBS-T, the membranes were incubated with an appropriate HRP-conjugated secondary antibody for 1 h at room temperature. After extensive washing for three times, the proteins of interest were detected with ECL western blotting detection reagents and recorded with autoradiography (Pierce Biotech, Rockford, IL, USA). The primary antibodies for Bcl-xL (Cat #2762), Bcl-2 (Cat #2872), Mcl-1 (Cat #5453) and β-actin (Cat #4970) were purchased from Cell Signaling technology. The relative band intensity was measured using ImageJ software and normalized to b-actin. The DC50 (concentration with 50% degradation) was calculated using GraphPad Prism. […] Bcl-2 levels were not detected, whereas Mcl-1 was unaffected with compound #55 treatment in MOLT4 cells (FIGS. 1B and 1D). […] The DC50 and Dmax values of compound #55 in platelets were >3 μM and 26%, respectively (FIG. 1E).

EJM cells = experiment: MTS cell viability assay in EJM cells; assay type: cell-based, human
Procedure: Multiple Myeloma EJM cells were incubated either with 250 nM S63845 (Mcl-1 inhibitor) or 125 nM compound #55 or the combination of both for 72 h. The cell viability was measured using MTS assay. The combination indices (CI) were calculated using formula CI=AB/(A×B); where AB is the percent cell inhibition by the combination whereas A and B are the percent cell inhibition by individual agents. CI<1 indicates synergism, whereas CI<0.3 indicates strong synergism.

Bcl-w = biological target: T2, Bcl-w (Homo sapiens, UniProt Q92843); experiment: AlphaLISA competitive binding assay, Bcl-w; conditions: His-tagged Bcl-w, biotin-tagged BIM peptide, 24 h incubation
T2 construct: purchased Sigma-Aldrich
T2 sequence (Q92843 1-193): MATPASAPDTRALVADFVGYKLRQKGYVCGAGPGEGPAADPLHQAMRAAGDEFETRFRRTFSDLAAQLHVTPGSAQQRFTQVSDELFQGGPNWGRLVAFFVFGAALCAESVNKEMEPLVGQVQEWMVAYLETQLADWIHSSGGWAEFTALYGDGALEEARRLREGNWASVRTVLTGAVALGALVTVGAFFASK
Procedure: (§2) Purified recombinant His-tagged Bcl-xL/Bcl-2/Bcl-w (Sigma-Aldrich, St. Louis, MO) were incubated with increasing concentrations of compound #55 and a fixed concentration of biotin-tagged Bad (for Bcl-xL) or BIM peptides (for Bcl-2 and Bcl-w) (AnaSpec, Fremont, CA) to a final volume of 40 µL in 96-well PCR plate. After 24 h incubation, 5 μL 6×His-Acceptor beads (final concentration 20 μg/mL) (PerkinElmer, Houston, TX) were added to each well and incubated for 1 h. Thereafter, 5 μL streptavidin-donor beads were added (final concentration 20 μg/mL) (PerkinElmer) to each well and incubated for 0.5 h. At the end of the incubation period, 17 μL of each sample was transferred in adjacent wells of 384-well proxy plate. The plate was scanned using Alpha program on Biotek's Synergy Neo2 multi-mode plate reader. The inhibition constant (Ki) was calculated using non-linear regression, one site, competitive binding, Fit Ki function on GraphPad Prism based on experimentally determined Kd for each protein/peptide pair.

H929 cells = experiment: MTS cell viability assay in H929 cells; assay type: cell-based, human; conditions: Mcl-1-dependent H929 cells, 72 h
Procedure: (§5) Cell viability was measured by tetrazolium-based MTS assay and IC50 was calculated as a percentage of vehicle-treated cells.

MOLT4 cells = experiment: MTS cell viability assay in MOLT4 cells
Procedure: as §5

H146 cells = experiment: MTS cell viability assay in H146 cells; assay type: cell-based, human
Procedure: Small cell lung cancer H146 cells were incubated either with 500 nM ABT-199 (Bcl-2 inhibitor) or 125 nM compound #55 or the combination of both for 72 h. The cell viability was measured using MTS assay. The combination indices (CI) were calculated using formula CI=AB/(A×B); where AB is the percent cell inhibition by the combination whereas A and B are the percent cell inhibition by individual agents. CI<1 indicates synergism, whereas CI<0.3 indicates strong synergism.

Mcl-1 [2] = biological target: T3, Mcl-1 (Homo sapiens, UniProt Q07820); experiment: Western blot Mcl-1 levels in MOLT4 cells; assay type: cell-based; design: endogenous in cells; conditions: 16 h
T3 sequence (Q07820 whole entry): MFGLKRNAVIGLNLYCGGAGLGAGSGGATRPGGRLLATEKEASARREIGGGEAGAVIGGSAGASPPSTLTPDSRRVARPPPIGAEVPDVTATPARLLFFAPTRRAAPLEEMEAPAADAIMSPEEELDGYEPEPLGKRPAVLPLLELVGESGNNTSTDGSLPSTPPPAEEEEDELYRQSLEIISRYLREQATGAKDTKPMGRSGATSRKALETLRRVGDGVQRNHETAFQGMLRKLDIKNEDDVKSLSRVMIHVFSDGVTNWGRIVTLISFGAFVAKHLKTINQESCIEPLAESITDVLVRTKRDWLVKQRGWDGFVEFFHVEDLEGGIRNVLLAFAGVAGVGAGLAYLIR
Procedure: (§3) MOLT4 cells and human platelets were incubated with increasing concentrations of compound #55 for 16 h. The cells were harvested and lysed in RIPA lysis buffer supplemented with protease and phosphatase inhibitor cocktails. An equal amount of protein (20 μg/lane) was resolved on a pre-cast 4-20% SDS-PAGE gel. Proteins were subsequently transferred to NOVEX PVDF membranes by electrophoresis. The membranes were blocked in blocking buffer (5% non-fat dry milk in TBS-T), and incubated with primary antibodies (at optimized concentrations) overnight at 4° C. After three washings in TBS-T, the membranes were incubated with an appropriate HRP-conjugated secondary antibody for 1 h at room temperature. After extensive washing for three times, the proteins of interest were detected with ECL western blotting detection reagents and recorded with autoradiography (Pierce Biotech, Rockford, IL, USA). The primary antibodies for Bcl-xL (Cat #2762), Bcl-2 (Cat #2872), Mcl-1 (Cat #5453) and β-actin (Cat #4970) were purchased from Cell Signaling technology. The relative band intensity was measured using ImageJ software and normalized to b-actin. The DC50 (concentration with 50% degradation) was calculated using GraphPad Prism. […] Bcl-2 levels were not detected, whereas Mcl-1 was unaffected with compound #55 treatment in MOLT4 cells (FIGS. 1B and 1D). […]

[3] = tested on: caspase-3 and poly (ADP) ribose polymerase (PARP); experiment: Western blot of cleaved caspase-3 and PARP in MOLT4 cells; assay type: cell-based, human; conditions: 0.1 and 0.3 μM, 24 h
Procedure: At the end of incubation, cells were harvested for western blot analysis of cleaved and full length caspase-3 and poly (ADP) ribose polymerase (PARP). The antibodies for cleaved caspase-3 (Cat #9661), full length caspase-3 (Cat #9662), and PARP (Cat #9532) were purchased from Cell Signaling Technology. A single Anti-PARP antibody used can detect both cleaved and full length PARP.

Bcl-2 [4] = biological target: T4, Bcl-2 (Homo sapiens, UniProt P10415); experiment: AlphaLISA competitive binding assay, Bcl-2; design: purchased Sigma-Aldrich; conditions: His-tagged Bcl-2, biotin-tagged BIM peptide, 24 h incubation
T4 sequence (P10415 whole entry): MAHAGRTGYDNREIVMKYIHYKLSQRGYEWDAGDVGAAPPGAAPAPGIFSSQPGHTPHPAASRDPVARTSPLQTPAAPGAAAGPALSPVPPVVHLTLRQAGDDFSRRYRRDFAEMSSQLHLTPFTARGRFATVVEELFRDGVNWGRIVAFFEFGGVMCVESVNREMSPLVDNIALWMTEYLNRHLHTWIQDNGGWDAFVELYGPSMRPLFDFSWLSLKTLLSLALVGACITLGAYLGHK
Procedure: as §2

platelets = experiment: Platelet toxicity; assay type: cell-based; conditions: up to 3 μM; data not shown
Bcl-xL [5] = biological target: T1, Bcl-xL; experiment: Western blot Bcl-XL degradation in additional cancer cells; assay type: cell-based; design: endogenous in cells; conditions: RS4; 11, EJM, H929 (16 h), H146 (48 h); fixed concentration
Procedure: as §3, with “The primary antibodies for Bcl-xL (Cat #2762), Bcl-2 (Cat #2872), Mcl-1 (Cat #5453) and β-actin (Cat #4970) were purchased from Cell Signaling technology.” left out
(§4) Tumor cells were incubated with a fixed concentration of compound #55 for 16 h (RS4; 11, EJM, H929) or 48 h (H146) and Bcl-2/Bcl-xL/Mcl-1 levels were determined using Western blot analysis as described above.

Bcl-xL [6] = biological target: T1, Bcl-xL; experiment: Western blot Bcl-xL degradation assay in MOLT4 cells; assay type: cell-based; design: endogenous in cells; host or cells: MOLT4
Procedure: as §1
MOLT4 cells were incubated with a fixed concentration of compound #55 for increasing time points. In another experiment, cells were treated for 16 hours followed by drug withdrawal and further cultured for increasing time-points before harvesting them for Bcl-xL degradation assays. Bcl-xL levels were measured using Western blot analysis as described above. The relative band intensity was measured using ImageJ software and normalized to equal loading control β-actin.
Cell viability was measured by MTS assay.
Third, we sought to confirm that compound #55-induced Bcl-xL degradation depends on proteasomal activity.
Fourth, we sought to confirm that Bcl-xL degardation by compound #55 requires the binding with Bcl-xL protein.

Mcl-1 [7] = biological target: T3, Mcl-1; experiment: Western blot Mcl-1 levels in additional cancer cells; assay type: cell-based; design: endogenous in cells; host or cells: RS4;11, EJM, H929, H146; conditions: RS4; 11, EJM, H929 (16 h), H146 (48 h); fixed concentration
Procedure: as §3, with “The primary antibodies for Bcl-xL (Cat #2762), Bcl-2 (Cat #2872), Mcl-1 (Cat #5453) and β-actin (Cat #4970) were purchased from Cell Signaling technology.” left out
as §4

Bcl-xL [8] = biological target: T1, Bcl-xL; experiment: AlphaLISA competitive binding assay, Bcl-xL; design: purchased Sigma-Aldrich; conditions: His-tagged Bcl-xL, biotin-tagged Bad peptide, 24 h incubation
Procedure: as §2

RS4; 11 cells = experiment: MTS cell viability assay in RS4; 11 cells; assay type: cell-based, human
Procedure: as §5

Bcl-2 [9] = biological target: T4, Bcl-2; experiment: Western blot Bcl-2 levels in additional cancer cells; assay type: cell-based; design: endogenous in cells; host or cells: RS4;11, EJM, H929, H146; conditions: RS4; 11, EJM, H929 (16 h), H146 (48 h); fixed concentration
Procedure: as §3, with “The primary antibodies for Bcl-xL (Cat #2762), Bcl-2 (Cat #2872), Mcl-1 (Cat #5453) and β-actin (Cat #4970) were purchased from Cell Signaling technology.” left out
as §4

T1 sequence (Q07817 whole entry): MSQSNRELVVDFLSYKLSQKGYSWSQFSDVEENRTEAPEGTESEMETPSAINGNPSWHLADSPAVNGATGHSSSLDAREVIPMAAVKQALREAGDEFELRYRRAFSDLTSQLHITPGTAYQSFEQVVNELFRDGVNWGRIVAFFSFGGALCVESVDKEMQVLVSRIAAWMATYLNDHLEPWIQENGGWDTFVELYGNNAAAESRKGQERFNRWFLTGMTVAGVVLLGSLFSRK

(2S,4R)-1-((S)-2-(7-(4-((R)-3-((4-(N-(4-(4-((4′- Chloro-4,4-dimethyl- 3,4,5,6-tetrahydro-[1,1′-biphenyl]-2- yl)methyl)piperazin-1-yl)benzoyl)sultamoyl)-2- ((trifluoromethyl)sulfonyl)phenyl)amino)-4- (phenylthio)butyl)piperazin-1-yl)-7- oxoheptanamido)-3,3-dimethylbutanoyl)-4-hydroxy- N-((S)-1-(4-(4-methylthiazol-5- yl)phenyl)ethyl)pyrrolidine-2-carboxamide [compound #55]
Bcl-xL levels (Bcl-xL [1]): did not affect Bcl-xL levels
DC50 (Bcl-xL [1]): > 3000 nM
Dmax of Bcl-xL (Bcl-xL [1]): 26%
loss of cell viability in combination with S63845 (EJM cells; EJM cells, 125 nM compound #55 + 250 nM S63845, 72 h): synergistically induce the loss of cell viability
cellular activity (EJM cells; Mcl-1-dependent EJM cells, 72 h): did not show any significant cellular activity
pKi (Bcl-w): 6.52
cellular activity (H929 cells): did not show any significant cellular activity
cell killing in the presence of VHL-L (MOLT4 cells; MOLT4 cells pretreated with 1 and 2 μM VHL-L for 1 h, then 72 h): abrogated
pIC50 (MOLT4 cells; read-out: IC50 cell viability, Bcl-XL-dependent MOLT4 cells, 72 h, MTS): 7.28
pIC50 (H146 cells; Bcl-2/Bcl-xL-dependent H146 cells, 72 h, MTS, read-out: IC50 loss of cell viability): 6.80
loss of cell viability in combination with ABT-199 (H146 cells; H146 cells, 125 nM compound #55 + 500 nM ABT-199, 72 h, MTS): synergistically induce the loss of cell viability
effect on cell viability compared with ABT-263 (H146 cells; H146 cells, 72 h): less prominent than ABT-263
Mcl-1 levels (Mcl-1 [2]): unaffected
cleavage of caspase-3 and PARP [3]: induced cleavage of caspase-3 and PARP
cleavage of caspase-3 and PARP compared with ABT263 [3]: more pronounced than ABT263
pKi (Bcl-2 [4]): 8.74
platelet toxicity (platelets): did not induce any significant platelet toxicity
Bcl-XL degradation (Bcl-xL [5]): capable of degrading Bcl-XL in all these cell lines
Bcl-xL degradation in ABT263-pretreated cells (Bcl-xL [6]; 1 μM ABT-263 pretreatment, 0.1 and 1 μM, 16 h): did not induce Bcl-xL degradation
Bcl-xL degradation in MG132-pretreated cells (Bcl-xL [6]; 1 μM MG132 pretreatment, 0.1 and 1 μM, 6 h): did not induce Bcl-xL degradation
Dmax (maximum degradation) of Bcl-xL (Bcl-xL [6]; 16 h): 90.8%
DC50 (Bcl-xL [6]; 16 h, read-out: DC50 (concentration with 50% degradation) of Bcl-xL): 63 nM
Bcl-xL degradation in VHL-L-pretreated cells (Bcl-xL [6]; VHL-L pretreatment, then 16 h): did not induce Bcl-xL degradation
time at which significant Bcl-xL degradation starts (Bcl-xL [6]; fixed concentration, increasing time points): 2 h
Bcl-xL degrading activity after drug withdrawal (Bcl-xL [6]; treated 16 hours then drug withdrawal): able to sustain its Bcl-xL degrading activity for prolonged period after drug withdrawal
effect on Mcl-1 levels (Mcl-1 [7]): sparing Bcl-2 and Mcl-1
pKi (Bcl-xL [8]): 7.89
pIC50 (RS4; 11 cells; Bcl-2-dependent RS4, 72 h, MTS, read-out: IC50 loss of cell viability): 6.64
effect on cell viability compared with ABT-263 (RS4; 11 cells; RS4, 72 h): less prominent than ABT-263
effect on Bcl-2 levels (Bcl-2 [9]): sparing Bcl-2 and Mcl-1

CC1(C)CCC(c2ccc(Cl)cc2)=C(CN2CCN(c3ccc(C(=O)NS(=O)(=O)c4ccc(N[C@H](CCN5CCOCC5)CSc5ccccc5)c(S(=O)(=O)C(F)(F)F)c4)cc3)CC2)C1 [ABT-263, navitoclax, reference compound]
pKi (Bcl-w): 7.48
cell killing in the presence of VHL-L (MOLT4 cells; MOLT4 cells, with 1 μM and 2 μM VHL-L, 72 h): could not further induce the cell killing in the presence of VHL-L
